# According to US10456379B2, “Imidazole-based antimicrobial agents” (priority 2014, dated 2019):
# Test system: Staphylococcus aureus MRSA (COL)
# Experiment: Broth microdilution MIC assay, Staphylococcus aureus MRSA (COL)
# Format: cell-based
# Conditions: MIC class score, MIC100, broth microdilution, COL strain
row,SMILES,Antibacterial activity Staphylococcus aureus (MRSA)
1,CCCc1nc(-c2coc(-c3ccccc3C(F)(F)F)c2)[nH]c1C [Compound 112],3 (MIC100 of 3-10 μg/ml)
2,CCCc1nc(-c2csc(-c3ccccc3C(F)(F)F)c2)[nH]c1C [Compound 113],3 (MIC100 of 3-10 μg/ml)
3,CCCc1nc(-c2sc(-c3ccccc3C(F)(F)F)c3c2OCCO3)[nH]c1C [Compound 114],3 (MIC100 of 3-10 μg/ml)
4,Cc1nc(-c2ccc(-c3ccc(F)cc3F)o2)[nH]c1-c1ccc(O)cc1 [compound 80],2 (MIC100 of 11-20 μg/ml)
5,CCCc1[nH]c(-c2ccc(-c3ccccc3Cl)s2)nc1C [compound 82],3 (MIC100 of 3-10 μg/ml)
6,CCCc1[nH]c(-c2ccc(-c3ccccc3)o2)nc1C [compound 94],3 (MIC100 of 3-10 μg/ml)
7,CCCc1nc(-c2ccc(-c3ccccc3N(C)C)o2)[nH]c1C [compound 98],3 (MIC100 of 3-10 μg/ml)
8,CCCc1nc(-c2ccc(-c3ccccc3C)o2)[nH]c1C [compound 100],2 (MIC100 of 11-20 μg/ml)
9,CCCc1nc(-c2ccc(-c3c(C)cccc3C)o2)[nH]c1C [compound 103],3 (MIC100 of 3-10 μg/ml)
10,CCCc1nc(-c2ccc(-c3ccc(C(F)(F)F)cc3)o2)[nH]c1C [compound 104],3 (MIC100 of 3-10 μg/ml)
11,CCCc1[nH]c(-c2ccc(-c3cccc4[nH]ccc34)o2)nc1C [compound 108],2 (MIC100 of 11-20 μg/ml)
12,CCCc1[nH]c(-c2ccc(-c3ccc(Cl)cc3Cl)o2)nc1C [compound 109],2 (MIC100 of 11-20 μg/ml)
13,CCCc1[nH]c(-c2ccc(-c3ccc(O)cc3C(F)(F)F)o2)nc1C [compound 110],3 (MIC100 of 3-10 μg/ml)

# Same assay, conditions: Staphylococcus aureus, MRSA, read-out: Antibacterial activity, MRSA (Staphylococcus aureus MRSA), MIC class
row,SMILES,MIC [µg/mL]
1,Cc1nc(-c2ccc(-c3cccc(Cl)c3)o2)[nH]c1-c1ccccc1 [compound 4],11 to 20

# Test system: Streptococcus pneumoniae (Chester, ATCC49619)
# Experiment: Broth microdilution MIC assay, Streptococcus pneumoniae
# Format: cell-based
# Conditions: MIC class score, MIC100, broth microdilution
row,SMILES,Antibacterial activity Streptococcus pneumoniae
1,Cc1nc(-c2ccc(-c3cc(F)ccc3C(F)(F)F)o2)[nH]c1-c1ccccc1 [31a],3 (MIC100 of 2-5 μg/ml)
2,Cc1[nH]c(-c2cc(C)n(-c3ccc(Cl)cc3)c2C)nc1-c1ccccc1 [compound 8],3 (MIC100 of 2-5 μg/ml)
3,Cc1[nH]c(-c2ccc(-c3ccccc3C(F)(F)F)o2)nc1-c1ccc(Br)cc1 [compound 25],3 (MIC100 of 2-5 μg/ml)
4,Cc1nc(-c2ccc(-c3cc(C(F)(F)F)cc(C(F)(F)F)c3)o2)[nH]c1-c1ccccc1 [compound 35],2 (MIC100 of 6-10 μg/ml)
5,Cc1nc(-c2ccc(-c3cc(C(F)(F)F)ccc3Cl)o2)[nH]c1-c1ccccc1 [compound 40],2 (MIC100 of 6-10 μg/ml)
6,CCc1ccc(-c2ccc(-c3nc(-c4ccccc4)c(C)[nH]3)o2)cc1 [compound 53],3 (MIC100 of 2-5 μg/ml)
7,Cc1ccc(-c2ccc(-c3nc(-c4ccccc4)c(C)[nH]3)s2)cc1 [compound 54],2 (MIC100 of 6-10 μg/ml)
8,Cc1ccc(-c2nc(-c3nc(-c4ccccc4)c(C)[nH]3)co2)cc1 [compound 57],3 (MIC100 of 2-5 μg/ml)
9,Cc1ccccc1-c1ccc(-c2nc(C)c(-c3ccccc3)[nH]2)o1 [compound 61],3 (MIC100 of 2-5 μg/ml)
10,Cc1cccc(C)c1-c1ccc(-c2nc(C)c(-c3ccccc3)[nH]2)o1 [compound 62],3 (MIC100 of 2-5 μg/ml)
11,FC(F)(F)Oc1ccccc1-c1ccc(-c2ncc(-c3ccccc3)[nH]2)o1 [compound 63],3 (MIC100 of 2-5 μg/ml)
12,Cc1nc(-c2ccc(-c3ccccc3N(C)C)o2)[nH]c1-c1ccccc1 [compound 71],3 (MIC100 of 2-5 μg/ml)
13,Cc1[nH]c(-c2cnn(-c3ccccc3)n2)nc1-c1ccccc1 [compound 73],2 (MIC100 of 6-10 μg/ml)
14,Cc1nc(-c2ccc(-c3ccccc3Br)o2)[nH]c1C [compound 84],2 (MIC100 of 6-10 μg/ml)
15,Cc1nc(-c2ccc(-c3ccccc3Cl)o2)[nH]c1C [compound 86],3 (MIC100 of 2-5 μg/ml)
16,Cc1nc(-c2ccc(-c3cccc4[nH]ccc34)o2)[nH]c1-c1ccccc1 [compound 138],2 (MIC100 of 6-10 μg/ml)
17,Cc1nc(-c2ccc(-c3ccc(O)cc3C(F)(F)F)o2)[nH]c1-c1ccccc1 [compound 139],3 (MIC100 of 2-5 μg/ml)

row,SMILES,Antibacterial activity Streptococcus pneumoniae
1,Cc1nc(-c2ccc(/C=C/c3ccccc3)o2)[nH]c1-c1ccccc1 [compound 143],3 (MIC100 of 2-5 μg/ml)
2,Cc1nc(-c2ccc(-c3ccc4[nH]ccc4c3)o2)[nH]c1-c1ccccc1 [compound 144],3 (MIC100 of 2-5 μg/ml)
3,Cc1nc(-c2ccc(-c3cccc(F)c3)o2)[nH]c1-c1ccccc1 [compound 146],3 (MIC100 of 2-5 μg/ml)
4,Cc1nc(-c2ccc(-c3ccc(F)cc3)o2)[nH]c1-c1ccccc1 [compound 148],3 (MIC100 of 2-5 μg/ml)
5,Cc1nc(-c2ccc(-c3ccc4cc[nH]c4c3)o2)[nH]c1-c1ccccc1 [compound 152],3 (MIC100 of 2-5 μg/ml)
6,Cc1nc(-c2ccc(-c3ccc(F)c(F)c3)o2)[nH]c1-c1ccccc1 [compound 153],3 (MIC100 of 2-5 μg/ml)
7,Cc1nc(-c2ccc(-c3ccc(O)c(C(F)(F)F)c3)o2)[nH]c1-c1ccccc1 [compound 155],3 (MIC100 of 2-5 μg/ml)
8,Cc1nc(-c2ccc(-c3ccc(O)c(Cl)c3)o2)[nH]c1-c1ccccc1 [compound 157],3 (MIC100 of 2-5 μg/ml)
9,Cc1nc(-c2ccc(-c3ccc(O)cc3Cl)o2)[nH]c1-c1ccccc1 [compound 158],3 (MIC100 of 2-5 μg/ml)
10,Cc1nc(-c2ccc(-c3ccc4occc4c3)o2)[nH]c1-c1ccccc1 [compound 159],3 (MIC100 of 2-5 μg/ml)
11,Cc1nc(-c2ccc(-c3cccc4cc[nH]c34)o2)[nH]c1-c1ccccc1 [compound 161],3 (MIC100 of 2-5 μg/ml)
12,Cc1[nH]c(-c2ccc(-c3ccccc3F)o2)nc1-c1ccccc1 [compound 162],3 (MIC100 of 2-5 μg/ml)
13,Cc1[nH]c(-c2ccc(-c3c(F)cccc3F)o2)nc1-c1ccccc1 [compound 163],3 (MIC100 of 2-5 μg/ml)
14,Cc1cc(F)ccc1-c1ccc(-c2nc(-c3ccccc3)c(C)[nH]2)o1 [compound 164],3 (MIC100 of 2-5 μg/ml)
15,Cc1[nH]c(-c2ccc(-c3ccc(C(C)(C)C)cc3)o2)nc1-c1ccccc1 [compound 165],2 (MIC100 of 6-10 μg/ml)
16,Cc1nc(-c2ccc(-c3ccc(O)cc3F)o2)[nH]c1-c1ccccc1 [compound 168],3 (MIC100 of 2-5 μg/ml)

# Same assay, conditions: Streptococcus pneumoniae, ATCC49619; read-out: Antibacterial activity, SP (Streptococcus pneumoniae), MIC class
row,SMILES,MIC [µg/mL]
1,Cc1nc(-c2ccc(-c3cccc(Cl)c3)o2)[nH]c1-c1ccccc1 [compound 4],< 1
2,Cc1nc(-c2ccc(-c3ccc(Cl)cc3)o2)[nH]c1-c1ccccc1 [compound 5],< 1
3,Cc1[nH]c(-c2ccc(-c3ccc(F)cc3)s2)nc1-c1ccccc1 [compound 7],2 to 5
4,Cc1[nH]c(-c2cc(C)n(-c3ccc(Cl)cc3)c2C)nc1-c1ccccc1 [compound 8],2 to 5
5,Cc1[nH]c(-c2cc(C)n(-c3ccc(F)cc3F)c2C)nc1-c1ccccc1 [compound 9],2 to 5
6,Cc1[nH]c(-c2cc(C)n(-c3ccc(F)c(F)c3F)c2C)nc1-c1ccccc1 [compound 10],2 to 5
7,Cc1[nH]c(-c2csc(-c3ccc(F)cc3)n2)nc1-c1ccccc1 [compound 11],2 to 5
8,Cc1[nH]c(-c2ccc(-c3cccc(Cl)c3)s2)nc1-c1ccccc1 [compound 12],2 to 5
9,Cc1[nH]c(-c2ccc(-c3cccc(Br)c3)s2)nc1-c1ccccc1 [compound 13],2 to 5
10,Cc1[nH]c(-c2csc(-c3cccc(Br)c3)n2)nc1-c1ccccc1 [compound 14],2 to 5
11,Cc1nc(-c2ccc(-c3ccccc3C(F)(F)F)o2)[nH]c1-c1ccccc1Cl [compound 20],< 1
12,Cc1[nH]c(-c2ccc(-c3ccccc3C(F)(F)F)o2)nc1-c1ccc(Br)cc1 [compound 25],2 to 5
13,Cc1[nH]c(-c2ccc(-c3ccccc3OC(F)(F)F)o2)nc1-c1ccc(C(F)(F)F)cc1 [compound 26],2 to 5
14,C#Cc1ccc(-c2[nH]c(-c3ccc(-c4ccccc4C(F)(F)F)o3)nc2C)cc1 [compound 27],< 1
15,CCc1ccc(-c2[nH]c(-c3ccc(-c4ccccc4C(F)(F)F)o3)nc2C)cc1 [compound 28],2 to 5
16,COc1ccc(-c2ccc(-c3nc(C)c(-c4ccccc4)[nH]3)o2)c(C(F)(F)F)c1 [compound 31],< 1

row,SMILES,MIC [µg/mL]
1,Cc1nc(-c2ccc(-c3cc(C(F)(F)F)ccc3Cl)o2)[nH]c1-c1ccccc1 [compound 40],6 to 10
2,Cc1ccc(-c2ccc(-c3nc(-c4ccccc4)c(C)[nH]3)o2)cc1 [compound 52],6 to 10
3,CCc1ccc(-c2ccc(-c3nc(-c4ccccc4)c(C)[nH]3)o2)cc1 [compound 53],2 to 5
4,Cc1ccc(-c2ccc(-c3nc(-c4ccccc4)c(C)[nH]3)s2)cc1 [compound 54],6 to 10
5,Cc1ccc(-c2ncc(-c3nc(-c4ccccc4)c(C)[nH]3)s2)cc1 [compound 55],2 to 5
6,Cc1ccc(-c2nc(-c3nc(-c4ccccc4)c(C)[nH]3)cs2)cc1 [compound 56],2 to 5
7,Cc1ccc(-c2nc(-c3nc(-c4ccccc4)c(C)[nH]3)co2)cc1 [compound 57],2 to 5
8,Cc1[nH]c(-c2cc(C)n(-c3ccc(C(C)C)cc3)c2C)nc1-c1ccccc1 [compound 58],< 1
9,Cc1[nH]c(-c2cc(C)n(-c3ccc4c(c3)CCC4)c2C)nc1-c1ccccc1 [compound 59],2 to 5
10,Cc1ccccc1-c1ccc(-c2nc(C)c(-c3ccccc3)[nH]2)o1 [compound 61],2 to 5
11,Cc1cccc(C)c1-c1ccc(-c2nc(C)c(-c3ccccc3)[nH]2)o1 [compound 62],2 to 5
12,FC(F)(F)Oc1ccccc1-c1ccc(-c2ncc(-c3ccccc3)[nH]2)o1 [compound 63],2 to 5
13,Cc1nc(-c2ccc(-c3ccccc3N(C)C)o2)[nH]c1-c1ccccc1 [compound 71],2 to 5
14,Cc1[nH]c(-c2coc(-c3ccccc3C(F)(F)F)c2)nc1-c1ccccc1 [compound 72],6 to 10
15,Cc1[nH]c(-c2cnn(-c3ccccc3)n2)nc1-c1ccccc1 [compound 73],6 to 10
16,Cc1[nH]c(-c2ccc(-c3ccccc3)s2)nc1-c1ccccc1 [compound 74],2 to 5
